Our source for the EC50 values is patent US8975235B2, “Lysophosphatidic acid receptor antagonists” (InterMune, Inc., priority 2011, dated 2015).

The experiment deals with Human LPA1 (Homo sapiens, UniProt Q92633). The experiment is described as follows: Beta-Arrestin based assay for human LPA1R antagonists (PathHunter). It counts as cell-based. Also on record: host or cells: CHO. Conditions: CHO cells stably expressing ProLink tagged human LPA1R; agonist LPA 0.5 micromolar. The procedure: Beta-Arrestin Based Assays for Human LPA1R Antagonists and Agonists
Human LPA1, sequence (Q92633 whole entry, the tested form may be a part): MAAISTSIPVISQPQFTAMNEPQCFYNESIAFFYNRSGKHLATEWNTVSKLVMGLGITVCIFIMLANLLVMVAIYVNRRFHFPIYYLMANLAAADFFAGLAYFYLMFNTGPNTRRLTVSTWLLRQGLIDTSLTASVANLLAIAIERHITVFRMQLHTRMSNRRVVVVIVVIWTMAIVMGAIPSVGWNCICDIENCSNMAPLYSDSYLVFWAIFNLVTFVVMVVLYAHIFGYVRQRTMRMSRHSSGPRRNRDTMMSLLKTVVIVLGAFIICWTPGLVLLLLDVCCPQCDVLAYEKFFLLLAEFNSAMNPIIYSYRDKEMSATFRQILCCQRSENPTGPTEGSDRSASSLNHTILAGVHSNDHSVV
A CHO cell line stably expressing the ProLink™ tagged human LPA1R was obtained from DiscoverX Inc, Fremont, Calif. In this system, β-Arrestin was fused to an N-terminal deletion mutant of β-galactosidase (termed the enzyme acceptor or EA), the human LPA1R was fused to a smaller (42 amino acids) weakly complementing fragment termed ProLink™. […] Cell handling and assays were performed according to protocols specified in the PathHunter® assays kits (DiscoverX, Fremont, Calif.). Assays were performed in quadruplicate in white 384 well plates. End point luminescence data were plotted and fit to a 4 parameter logistic function to obtain IC50 values. For antagonist assays, an […] concentration of agonist (LPA) equal to 0.5 micromolar was used.
Take `Cc1nsc(-c2ccc(-c3ccc(C4(C(=O)O)CC4)cc3)c(Cl)c2)c1NC(=O)O[C@H](C)c1ccccc1` [Compound 188]: the EC50 is < 0.05 µM.
Turning to `Cc1nsc(-c2ccc(-c3ccc(C4(C(=O)O)CC4)cc3)cc2C#N)c1NC(=O)O[C@H](C)c1ccccc1` [Compound 189], the EC50 is > 0.5 µM.
Take `Cc1nsc(-c2ccc(-c3ccc(CC(=O)O)cc3Cl)cc2)c1NC(=O)O[C@H](C)c1ccccc1Cl` [Compound 190]: the EC50 lay within 0.05 to 0.5 µM.
Regarding `Cc1nsc(-c2ccc(-c3ccc(C4(C(=O)O)CC4)c(Cl)c3)cc2)c1NC(=O)O[C@H](C)c1ccccc1Cl` [Compound 191], the EC50 is < 0.05 µM.
`Cc1nsc(-c2ccc(-c3ccc(CC(=O)O)c(Cl)c3)cc2)c1NC(=O)O[C@H](C)c1ccccc1Cl` [Compound 192] registered a 50% effective concentration (EC50) of 0.05 to 0.5 µM.
Consider `Cc1cc(CC(=O)O)ccc1-c1ccc(-c2snc(C)c2NC(=O)O[C@H](C)c2ccccc2Cl)cc1` [Compound 193], for which the EC50 lay within 0.05 to 0.5 µM.
As to `Cc1nsc(-c2ccc(-c3ccc(C4(C(=O)O)CC4)cc3)cc2)c1NC(=O)O[C@H](C)c1cccc(F)c1` [Compound 194], the 50% effective concentration (EC50) was < 0.05 µM.
`Cc1nsc(-c2ccc(-c3ccc(CC(=O)O)cc3F)cc2)c1NC(=O)O[C@H](C)c1ccccc1Cl` [Compound 195]: the EC50 was in the range of 0.05 to 0.5 µM.
In the case of `Cc1nsc(-c2ccc(-c3ccc(CC(=O)O)c(F)c3)cc2)c1NC(=O)O[C@H](C)c1ccccc1Cl` [Compound 196], the 50% effective concentration (EC50) was in the range of 0.05 to 0.5 µM.
For `Cc1nsc(-c2ccc(-c3ccc(C4(C(=O)O)CC4)c(F)c3)cc2)c1NC(=O)O[C@H](C)c1ccccc1Cl` [Compound 197], the EC50 was < 0.05 µM.
With `Cc1nsc(-c2ccc(-c3ccc(C4(C(=O)O)CC4)cc3)cc2)c1NC(=O)O[C@H](C)c1cccc(Cl)c1` [Compound 198], the concentration for a half-maximal effect (EC50) is < 0.05 µM.
For the compound `C[C@@H](OC(=O)Nc1c(-c2cc(F)c(-c3ccc(C4(C(=O)O)CC4)cc3)cc2F)cnn1C)c1ccccc1Cl` [Compound 199], the EC50 is < 0.05 µM.
In the case of `C[C@@H](OC(=O)Nc1c(-c2cc(Cl)c(-c3ccc(C4(C(=O)O)CC4)cc3)cc2F)cnn1C)c1ccccc1Cl` [Compound 202], the EC50 was < 0.05 µM.
With `C[C@@H](OC(=O)Nc1c(-c2ccc(-c3ccc(C4(C(=O)O)CC4)cc3)c(F)c2)cnn1C)c1ccccc1` [Compound 203], the concentration for a half-maximal effect (EC50) is < 0.05 µM.
Then `C[C@@H](OC(=O)Nc1c(-c2ccc(-c3ccc(C4(C(=O)O)CC4)cc3)cc2F)cnn1C)c1ccccc1` [Compound 204], with < 0.05 µM; and `C[C@@H](OC(=O)Nc1c(-c2c(F)cc(-c3ccc(C4(C(=O)O)CC4)cc3)cc2F)cnn1C)c1ccccc1` [Compound 205], with < 0.05 µM; and `C[C@@H](OC(=O)Nc1oncc1-c1ccc(-c2ccc(C3(C(=O)O)CC3)cc2)cc1)c1ccccc1` [Compound 206], with < 0.05 µM.
Then `C[C@@H](OC(=O)Nc1sc2ccccc2c1-c1ccc(-c2ccc(C3(C(=O)O)CC3)cc2)cc1)c1ccccc1` [Compound 207], with > 0.5 µM; and `C[C@@H](OC(=O)Nc1oc2ccccc2c1-c1ccc(-c2ccc(C3(C(=O)O)CC3)cc2)cc1)c1ccccc1` [Compound 208], with > 0.5 µM; and `C[C@@H](OC(=O)Nc1c(-c2ccc(-c3ccc(C4(C(=O)O)CC4)cc3)cc2)sc2ccccc12)c1ccccc1Cl` [Compound 209], with 0.05 to 0.5 µM.
For the compound `C[C@@H](OC(=O)Nc1cnsc1-c1ccc(-c2ccc(C3(C(=O)O)CC3)cc2)cc1)c1ccccc1Cl` [Compound 210], the concentration giving a half-maximal response (EC50) was 0.05 to 0.5 µM.
In the case of `C[C@@H](OC(=O)Nc1nsnc1-c1ccc(-c2ccc(C3(C(=O)O)CC3)cc2)cc1)c1ccccc1` [Compound 211], the EC50 fell in the range of 0.05 to 0.5 µM.
On to `C[C@@H](OC(=O)Nc1c(-c2ccc(-c3ccc(C4(C(=O)O)CC4)cc3)cc2)oc2nc(C(F)(F)F)ccc12)c1ccccc1` [Compound 212], for which the EC50 is > 0.5 µM.
As to `Cc1ccc2c(NC(=O)O[C@H](C)c3ccccc3)c(-c3ccc(-c4ccc(C5(C(=O)O)CC5)cc4)cc3)sc2n1` [Compound 214], the EC50 is > 0.5 µM.
Regarding `Cc1ccc2c(NC(=O)O[C@H](C)c3ccccc3)c(-c3ccc(-c4ccc(C5(C(=O)O)CC5)cc4)cc3)oc2n1` [Compound 215], the EC50 was > 0.5 µM.
Take `Cc1nsc(-c2ccc(-c3ccc(C4(C(=O)O)CC4)cc3)cc2)c1NC(=O)O[C@H](C)C1=C(Cl)CCCC1` [Compound 218]: the EC50 is < 0.05 µM.
Then `Cc1nsc(-c2ccc(-c3ccc(C4(C(=O)O)CC4)cc3)cc2)c1NC(=O)O[C@@H](C)C1=C(Cl)CCCC1` [Compound 219], with 0.05 to 0.5 µM; and `CC(C)n1ncc(-c2ccc(-c3ccc(C4(C(=O)O)CC4)cc3)cc2)c1NC(=O)O[C@H](C)c1ccccc1` [Compound 220], with < 0.05 µM.
Then `CCn1ncc(-c2ccc(-c3ccc(C4(C(=O)O)CC4)cc3)cc2)c1NC(=O)O[C@H](C)c1ccccc1` [Compound 221], with < 0.05 µM; and `CC(OC(=O)Nc1n[nH]nc1-c1ccc(-c2ccc(C3(C(=O)O)CC3)cc2)cc1)c1ccccc1` (centres unmarked) [Compound 223], with > 0.5 µM.
Then `C[C@@H](OC(=O)Nc1nn(C)nc1-c1ccc(-c2ccc(C3(C(=O)O)CC3)cc2)cc1)c1ccccc1` [Compound 225], with > 0.5 µM.
For the compound `C[C@@H](OC(=O)Nc1nnn(C)c1-c1ccc(-c2ccc(C3(C(=O)O)CC3)cc2)cc1)c1ccccc1` [Compound 226], the EC50 was > 0.5 µM.
Consider `Cc1nsc(-c2ccc(-c3ccc(C4(C(=O)O)CC4)cc3)cc2)c1NC(=O)O[C@@H](C)c1ccccc1` [Compound 236], for which the EC50 was > 0.5 µM.
In the case of `Cc1nsc(-c2ccc(-c3ccc(C4(C(=O)OC5OC(C(=O)O)C(O)C(O)C5O)CC4)cc3)cc2)c1NC(=O)O[C@H](C)c1ccccc1` (some centres unmarked) [Compound 238], the EC50 was > 0.5 µM.
On to `Cc1nsc(-c2ccc(-c3ccc(C4(C(=O)O)CC4)cc3)c3c2CCC3)c1NC(=O)O[C@H](C)c1ccccc1` [Compound 239], for which the EC50 was > 0.5 µM.
`Cc1nsc(-c2ccc(-c3ccc(C4(C(=O)O)CCOCC4)cc3)cc2)c1NC(=O)O[C@H](C)c1ccccc1` [Compound 243]: the EC50 is 0.05 to 0.5 µM.
With `Cc1nsc(-c2ccc(-c3ccc(C4(C(=O)O)CC4)cc3)cc2)c1NC(=O)OC1(c2ccccc2)CC1` [Compound 244], the EC50 was > 0.5 µM.
Then `Cc1nsc(-c2ccc3c(c2)CCc2cc(C4(C(=O)O)CC4)ccc2-3)c1NC(=O)O[C@H](C)c1ccccc1` [Compound 245], with < 0.05 µM; and `Cc1nsc(-c2ccc3c(c2)CCc2cc(C4(C(=O)O)CC4)ccc2-3)c1NC(=O)OCc1ccccc1` [Compound 246], with 0.05 to 0.5 µM; and `Cc1noc(-c2ccc3c(c2)CCc2cc(C4(C(=O)O)CC4)ccc2-3)c1NC(=O)O[C@H](C)c1ccccc1` [Compound 247], with < 0.05 µM.
Then `Cc1noc(-c2ccc3c(c2)CCc2cc(C4(C(=O)O)CC4)ccc2-3)c1NC(=O)O[C@H](C)c1ccccc1Cl` [Compound 248], with < 0.05 µM; and `Cc1nsc(-c2ccc3c(c2)CCc2cc(C4(C(=O)O)CC4)ccc2-3)c1NC(=O)O[C@H](C)c1ccccc1Cl` [Compound 249], with < 0.05 µM; and `Cc1noc(C#Cc2ccc(C3(C(=O)O)CC3)cc2)c1NC(=O)O[C@H](C)c1ccccc1` [Compound 250], with 0.05 to 0.5 µM.
`Cc1nsc(-c2ccc(-c3ccc(C4(C(=O)O)CC4)cc3)nc2)c1NC(=O)O[C@H](C)c1ccccc1Cl` [Compound 251] displayed an EC50 of 0.05 to 0.5 µM.
